In assay [1] the test system is acute myelocytic leukemia (AML) cell line MV4-11. Put plainly: Oncology cell growth assay (3-day proliferation, CellTiter-Glo). It is filed as cell-based. The conditions noted are these: Homo sapiens, MV4-11 cells, 3000 cells/well, compounds listed under IC50 range headings, read-out: MV411 IC50 (gIC50, inhibition of proliferation). Put shortly: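 MV4-11 AML cells (RPMI 1640, 10% FBS) plated at 3000 cells/well and exposed 72 h to compound at final 10 to 0.0045 μM (3-fold series). Viability read by CellTiter-Glo luminescence; gIC50 from four-parameter logistic fit between DMSO control and no-cell background.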

The target in assay [2] is T1, BRD4 Bromodomain 1 (BRD4 BD1) (Homo sapiens, UniProt O60885).
T1 construct: 44-168 and BRD4 BD2
Put plainly: AlphaScreen binding assay, BRD4 BD1. The conditions noted are these: His-tagged BRD4 BD1 50 nM, biotinylated H4 (1-21) K5/8/12/16 tetra-acetylated peptide 50 nM, compounds listed under IC50 range headings. A digest of the protocol:
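Compound dilution series were mixed with His-tagged BRD4 bromodomain and biotinylated tetra-acetylated H4 (1-21) peptide at pH 7.3 (BD1 and peptide at 50 nM, BD2 and peptide at 100 nM). Donor and acceptor beads were then added, and plates were equilibrated at least 1 h before reading. IC50 values were fitted with a four-parameter logistic model.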

The structures appear in SMILES notation. Read-outs that look alike come from different tables or passages of the source.

For `CC(=O)Nc1c(-c2ccc3c(c2OC2CCC2)CC[C@H](C)N3C(=O)C2CC2)cnn1C1CC1` [I-301, N-(4-((2S)-5-cyclobutoxy-1-(cyclopropanecarbonyl)-2-methyl-1,2,3,4-tetrahydroquinolin-6-yl)-1-cyclopropyl-1H-pyrazol-5-yl)acetamide], the IC50 is over 1000 nM in assay [1] (MV4-11, 72 h) and 1000 to 10000 nM in assay [2].
In the case of `C[C@H]1CCc2c(ccc(-c3cnn(C4CCNCC4)c3)c2Oc2ccccc2F)N1C(=O)C1CC1` [I-260, (S)-cyclopropyl(5-(2-fluorophenoxy)-2-methyl-6-(1-(piperidin-4-yl)-1H-pyrazol-4-yl)-3,4-dihydroquinolin-1(2H)-yl)methanone], the IC50 was under 500 nM in assay [1] (MV4-11, 72 h) and 100 to 1000 nM in assay [2].
`C[C@H]1CCc2c(ccc(C3CC3)c2Oc2ccccc2)N1C(=O)C1CC1` [I-243, (S)-cyclopropyl(6-cyclopropyl-2-methyl-5-phenoxy-3,4-dihydroquinolin-1 (2H)-yl) methanone]: the IC50 in assay [1] (MV4-11, 72 h) is under 500 nM; in assay [2], 100 to 1000 nM.
For the compound `C[C@H]1CCc2c(ccc(-c3cnn(C4CCNCC4)c3)c2Oc2cc(F)ccc2F)N1C(=O)C1CC1` [I-274, (S)-cyclopropyl(5-(2,5-difluorophenoxy)-2-methyl-6-(1-(piperidin-4-yl)-1H-pyrazol-4-yl)-3,4-dihydroquinolin-1 (2H)-yl)methanone], the IC50 in assay [1] (MV4-11, 72 h) was under 500 nM; in assay [2], 100 to 1000 nM.
On to `COC(=O)N1c2ccc(-c3cnn(C4CNC4)c3)c(Oc3ccc(F)cc3F)c2CC[C@@H]1C` [I-266, (S)-methyl 6-(1-(azetidin-3-yl)-1H-pyrazol-4-yl)-5-(2,4-difluorophenoxy)-2-methyl-3,4-dihydroquinoline-1(2H)-carboxylate], for which the IC50 in assay [1] (MV4-11, 72 h) is under 500 nM; in assay [2], 100 to 1000 nM.
Turning to `COC(=O)N1c2c(F)cc(-c3cnn(C4CCNCC4)c3)c(OC3CCC3)c2CC[C@@H]1C` [I-110, (S)-methyl 5-cyclobutoxy-8-fluoro-2-methyl-6-(1-(piperidin-4-yl)-1H-pyrazol-4-yl)-3,4-dihydroquinoline-1(2H)-carboxylate], the IC50 is under 500 nM in assay [1] (MV4-11, 72 h) and 100 to 1000 nM in assay [2].
On the same counts, the results for `C[C@H]1CCc2c(ccc(-c3cnn(C4CNC4)c3)c2Oc2ccc(F)c(F)c2)N1C(=O)C1CC1` [I-174, (S)-(6-(1-(azetidin-3-yl)-1H-pyrazol-4-yl)-5-(3,4-difluorophenoxy)-2-methyl-3,4-dihydroquinolin-1(2H)-yl)(cyclopropyl)methanone] are under 500 nM and 100 to 1000 nM.
Consider `C[C@H]1CCc2c(ccc(-c3cnn(C4CNC4)c3)c2Oc2cc(F)ccc2F)N1C(=O)C1CC1` [I-272, (S)-(6-(1-(azetidin-3-yl)-1H-pyrazol-4-yl)-5-(2,5-difluorophenoxy)-2-methyl-3,4-dihydroquinolin-1(2H)-yl)(cyclopropyl)methanone], for which the IC50 in assay [1] (MV4-11, 72 h) was under 500 nM; in assay [2] it was 100 to 1000 nM.
Regarding `COC(=O)N1c2ccc(-c3cnn(C4CCNCC4)c3F)c(OC3CCC3)c2CC[C@@H]1C` [I-360, methyl (S)-5-cyclobutoxy-6-(5-fluoro-1-(piperidin-4-yl)-1H-pyrazol-4-yl)-2-methyl-3,4-dihydroquinoline-1(2H)-carboxylate], the IC50 in assay [1] (72 hours) was under 500 nM; in assay [2] it was 100 to 1000 nM.
Turning to `C[C@H]1CCc2c(ccc(-c3ccnn3C3CCNCC3)c2OC2CCC2)N1C(=O)C1CC1` [I-306, ((2S)-5-cyclobutoxy-2-methyl-6-(1-(piperidin-4-yl)-1H-pyrazol-5-yl)-3,4-dihydroquinolin-1(2H)-yl)(cyclopropyl)methanone], the IC50 in assay [1] (MV4-11, 72 h) is over 1000 nM; in assay [2], at least 10000 nM.
On the same counts, the results for `C[C@H]1CCc2c(ccc(-c3c[nH]nn3)c2OC2CCC2)N1C(=O)C1CC1` [I-128, (S)-(5-cyclobutoxy-2-methyl-6-(1H-1,2,3-triazol-4-yl)-3,4-dihydroquinolin-1(2H)-yl)(cyclopropyl)methanone] are 500 to 1000 nM and 100 to 1000 nM.
`C[C@H]1CCc2c(ccc(-c3cn(C)nn3)c2Oc2ccc(F)c(F)c2)N1C(=O)C1CC1` [I-319, (S)-cyclopropyl(5-(3,4-difluorophenoxy)-2-methyl-6-(1-methyl-1H-1,2,3-triazol-4-yl)-3,4-dihydroquinolin-1(2H)-yl)methanone]: the IC50 in assay [1] (MV4-11, 72 h) is under 500 nM; in assay [2], 1000 to 10000 nM.
Regarding `C[C@H]1CCc2c(ccc(-c3cn(C)nn3)c2Oc2ccccc2C#N)N1C(=O)C1CC1` [I-154, (S)-2-(1-(cyclopropanecarbonyl)-2-methyl-6-(1-methyl-1H-1,2,3-triazol-4-yl)-1,2,3,4-tetrahydroquinolin-5-yloxy)benzonitrile], the IC50 is under 500 nM in assay [1] (MV4-11, 72 h) and 1000 to 10000 nM in assay [2].
In the case of `COC(=O)N1c2c(F)cc(-c3cnn(C4CCNCC4)c3)c(Oc3ccccc3)c2CC[C@@H]1C` [I-205, (S)-methyl 8-fluoro-2-methyl-5-phenoxy-6-(1-(piperidin-4-yl)-1H-pyrazol-4-yl)-3,4-dihydroquinoline-1(2H)-carboxylate], the IC50 in assay [1] (MV4-11, 72 h) was under 500 nM; in assay [2], 100 to 1000 nM.
As for `COC(=O)N1c2ccc(-c3csc(C(N)=O)n3)c(OC3CCC3)c2CC[C@@H]1C` [I-129, (S)-methyl-6-(2-carbamoylthiazol-4-yl)-5-cyclobutoxy-2-methyl-3,4-dihydroquinoline-1(2H)-carboxylate], the IC50 is under 500 nM in assay [1] (MV4-11, 72 h) and 100 to 1000 nM in assay [2].
On to `CC(=O)N1c2c(F)cc(-c3cnn(C4CC4)c3)c(OC3CCC3)c2CC[C@@H]1C` [I-73, (S)-1-(5-cyclobutoxy-6-(1-cyclopropyl-1H-pyrazol-4-yl)-8-fluoro-2-methyl-3,4-dihydroquinolin-1(2H)-yl)ethanone], for which the IC50 in assay [1] (MV4-11, 72 h) was 500 to 1000 nM; in assay [2], 100 to 1000 nM.
On the same counts, the results for `COC(=O)N1c2ccc(-c3cnn(C4CNC4)c3)c(Oc3cccc(Cl)c3)c2CC[C@@H]1C` [I-177, (S)-methyl 6-(1-(azetidin-3-yl)-1H-pyrazol-4-yl)-5-(3-chlorophenoxy)-2-methyl-3,4-dihydroquinoline-1(2H)-carboxylate] are under 500 nM and 100 to 1000 nM.
On the same counts, the results for `COC(=O)N1c2ccc(-c3csc(C4(OC)CNC4)n3)c(OC3CCC3)c2CC[C@@H]1C` [I-350, (S)-methyl 5-cyclobutoxy-6-(2-(3-methoxyazetidin-3-yl)thiazol-4-yl)-2-methyl-3,4-dihydroquinoline-1(2H)-carboxylate] are over 1000 nM and 1000 to 10000 nM.
For `C[C@H]1CCc2c(ccc(-c3cnn(C4CCNCC4)c3)c2Oc2ccc(F)c(F)c2)N1C(=O)C1CC1` [I-172, (S)-cyclopropyl(5-(3,4-difluorophenoxy)-2-methyl-6-(1-(piperidin-4-yl)-1H-pyrazol-4-yl)-3,4-dihydroquinolin-1(2H)-yl)methanone], the IC50 was under 500 nM in assay [1] (MV4-11, 72 h) and 100 to 1000 nM in assay [2].
For the compound `COC(=O)N1c2ccc(-c3cnn(C4CCNCC4)c3)c(Oc3ccccn3)c2CC[C@@H]1C` [I-96, (S)-methyl 2-methyl-6-(1-(piperidin-4-yl)-1H-pyrazol-4-yl)-5-(pyridin-2-yloxy)-3,4-dihydroquinoline-1(2H)-carboxylate], the IC50 in assay [1] (MV4-11, 72 h) is under 500 nM; in assay [2], 100 to 1000 nM.
`C[C@H]1CCc2c(ccc(-c3cn(C)cn3)c2OC2CCC2)N1C(=O)C1CC1` [I-57, (S)-(5-cyclobutoxy-2-methyl-6-(1-methyl-1H-imidazol-4-yl)-3,4-dihydroquinolin-1(2H)-yl)(cyclopropyl)methanone]: the IC50 is under 500 nM in assay [1] (MV4-11, 72 h) and 100 to 1000 nM in assay [2].
`COC(=O)N1c2ccc(-c3cnn([C@@H]4CCNC[C@H]4F)c3)c(OC3CCC3)c2CC[C@@H]1C` [I-367, methyl (2S)-5-cyclobutoxy-6-{1-[(3R,4R)-3-fluoropiperidin-4-yl]-1H-pyrazol-4-yl}-2-methyl-1,2,3,4-tetrahydroquinoline-1-carboxylate]: the IC50 in assay [1] (MV4-11, 72 h) was under 500 nM; in assay [2], 100 to 1000 nM.
As for `C[C@H]1CCc2c(ccc(-c3cnn(C4CCNCC4)c3)c2Oc2cccc(Cl)n2)N1C(=O)C1CC1` [I-94, (S)-(5-(6-chloropyridin-2-yloxy)-2-methyl-6-(1-(piperidin-4-yl)-1H-pyrazol-4-yl)-3,4-dihydroquinolin-1(2H)-yl)(cyclopropyl)methanone], the IC50 in assay [1] (MV4-11, 72 h) is under 500 nM; in assay [2], 1000 to 10000 nM.
In the case of `COC(=O)N1c2ccc(-n3cc(N4CCOCC4)cn3)c(Oc3ccccc3)c2CC[C@@H]1C` [I-339, (S)-methyl 2-methyl-6-(4-morpholino-1H-pyrazol-1-yl)-5-phenoxy-3,4-dihydroquinoline-1(2H)-carboxylate], the IC50 in assay [1] (MV4-11, 72 h) is over 1000 nM; in assay [2] it was 1000 to 10000 nM.
On the same counts, the results for `COC(=O)N1c2ccc(-c3cnn(C4CCNCC4)c3)c(Oc3cc(F)cc(F)c3)c2CC[C@@H]1C` [I-182, (S)-methyl 5-(3,5-difluorophenoxy)-2-methyl-6-(1-(piperidin-4-yl)-1H-pyrazol-4-yl)-3,4-dihydroquinoline-1(2H)-carboxylate] are under 500 nM and 100 to 1000 nM.
On to `C[C@H]1CCc2c(ccc(-c3cnn(C4CNC4)c3)c2Oc2cccc(F)c2)N1C(=O)C1CC1` [I-173, (S)-(6-(1-(azetidin-3-yl)-1H-pyrazol-4-yl)-5-(3-fluorophenoxy)-2-methyl-3,4-dihydroquinolin-1(2H)-yl)(cyclopropyl)methanone], for which the IC50 in assay [1] (MV4-11, 72 h) is under 500 nM; in assay [2], 100 to 1000 nM.

The values above are taken from patent US10611750B2, “Tetrahydroquinoline compositions as bet bromodomain inhibitors” (FORMA Therapeutics, Inc., priority 2013, dated 2020).
